Test results: ChEMBL document CHEMBL1144370, “3-Acyl-2,6-diaminopyridines as cyclin-dependent kinase inhibitors: synthesis and biological evaluation” (Bioorg Med Chem Lett, 2005)

Tests used:
[1] = molecular target: Cyclin-dependent kinase 2 (Homo sapiens, UniProt P24941); assay: In vitro inhibitory concentration against cyclin-dependent kinase 2
[2] = In vitro inhibitory concentration against cyclin-dependent kinase 1; parameters: species or system Homo sapiens
[3] = system: HCT-116; assay: Compound tested for anti-proliferative activity against HCT116 cells; format: functional, cell-based; conditions: Homo sapiens
[4] = system: A-375; assay: Compound tested for anti-proliferative activity against A375 cells; format: functional, cell-based; conditions: Homo sapiens
[5] = system: HeLa; assay: Compound tested for anti-proliferative activity against HeLa cells; format: functional, cell-based; conditions: Homo sapiens
[6] = molecular target: Epidermal growth factor receptor (Homo sapiens, UniProt P00533); assay: In vitro inhibitory concentration against epidermal growth factor receptor
[7] = molecular target: Receptor tyrosine-protein kinase erbB-2 (Homo sapiens, UniProt P04626); assay: In vitro inhibitory concentration against HER2
[8] = molecular target: T1, Vascular endothelial growth factor receptor 2 (Homo sapiens, UniProt P35968); assay: In vitro inhibitory concentration against vascular endothelial growth factor receptor 2
[9] = molecular target: T1, Vascular endothelial growth factor receptor 2; assay: In vitro inhibitory concentration against Vascular endothelial growth factor receptor 2

Sequence of Epidermal growth factor receptor (P00533 whole entry): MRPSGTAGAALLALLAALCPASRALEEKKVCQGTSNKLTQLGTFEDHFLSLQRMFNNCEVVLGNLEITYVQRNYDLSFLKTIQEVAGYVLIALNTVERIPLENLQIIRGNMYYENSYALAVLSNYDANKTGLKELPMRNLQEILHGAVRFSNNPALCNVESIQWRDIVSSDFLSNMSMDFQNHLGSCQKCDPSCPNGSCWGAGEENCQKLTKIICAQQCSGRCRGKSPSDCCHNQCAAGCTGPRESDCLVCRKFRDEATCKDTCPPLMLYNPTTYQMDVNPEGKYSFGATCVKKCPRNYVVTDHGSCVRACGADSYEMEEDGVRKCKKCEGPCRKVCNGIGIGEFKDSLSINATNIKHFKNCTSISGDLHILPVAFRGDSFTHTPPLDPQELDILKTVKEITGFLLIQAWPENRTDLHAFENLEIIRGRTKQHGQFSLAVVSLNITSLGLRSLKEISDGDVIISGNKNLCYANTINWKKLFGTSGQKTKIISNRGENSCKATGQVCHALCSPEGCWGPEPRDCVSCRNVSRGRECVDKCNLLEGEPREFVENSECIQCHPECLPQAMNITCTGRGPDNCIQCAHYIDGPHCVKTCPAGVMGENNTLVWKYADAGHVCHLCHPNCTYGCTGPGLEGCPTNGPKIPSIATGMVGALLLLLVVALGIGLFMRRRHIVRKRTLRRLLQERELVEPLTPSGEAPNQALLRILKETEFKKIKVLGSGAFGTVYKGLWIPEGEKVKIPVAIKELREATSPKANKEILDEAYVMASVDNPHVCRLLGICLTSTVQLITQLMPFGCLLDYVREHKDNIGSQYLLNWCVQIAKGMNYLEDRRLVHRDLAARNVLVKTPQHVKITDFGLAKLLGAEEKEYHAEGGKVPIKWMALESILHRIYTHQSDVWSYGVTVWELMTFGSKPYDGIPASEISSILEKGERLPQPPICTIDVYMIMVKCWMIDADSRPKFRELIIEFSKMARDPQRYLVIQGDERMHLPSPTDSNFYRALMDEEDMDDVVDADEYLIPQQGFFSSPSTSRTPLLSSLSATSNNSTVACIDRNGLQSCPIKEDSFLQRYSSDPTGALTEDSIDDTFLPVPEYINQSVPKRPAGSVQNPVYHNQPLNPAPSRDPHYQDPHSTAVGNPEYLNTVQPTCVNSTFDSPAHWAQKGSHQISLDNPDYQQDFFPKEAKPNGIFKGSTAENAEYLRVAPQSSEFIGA
T1 sequence (P35968 whole entry): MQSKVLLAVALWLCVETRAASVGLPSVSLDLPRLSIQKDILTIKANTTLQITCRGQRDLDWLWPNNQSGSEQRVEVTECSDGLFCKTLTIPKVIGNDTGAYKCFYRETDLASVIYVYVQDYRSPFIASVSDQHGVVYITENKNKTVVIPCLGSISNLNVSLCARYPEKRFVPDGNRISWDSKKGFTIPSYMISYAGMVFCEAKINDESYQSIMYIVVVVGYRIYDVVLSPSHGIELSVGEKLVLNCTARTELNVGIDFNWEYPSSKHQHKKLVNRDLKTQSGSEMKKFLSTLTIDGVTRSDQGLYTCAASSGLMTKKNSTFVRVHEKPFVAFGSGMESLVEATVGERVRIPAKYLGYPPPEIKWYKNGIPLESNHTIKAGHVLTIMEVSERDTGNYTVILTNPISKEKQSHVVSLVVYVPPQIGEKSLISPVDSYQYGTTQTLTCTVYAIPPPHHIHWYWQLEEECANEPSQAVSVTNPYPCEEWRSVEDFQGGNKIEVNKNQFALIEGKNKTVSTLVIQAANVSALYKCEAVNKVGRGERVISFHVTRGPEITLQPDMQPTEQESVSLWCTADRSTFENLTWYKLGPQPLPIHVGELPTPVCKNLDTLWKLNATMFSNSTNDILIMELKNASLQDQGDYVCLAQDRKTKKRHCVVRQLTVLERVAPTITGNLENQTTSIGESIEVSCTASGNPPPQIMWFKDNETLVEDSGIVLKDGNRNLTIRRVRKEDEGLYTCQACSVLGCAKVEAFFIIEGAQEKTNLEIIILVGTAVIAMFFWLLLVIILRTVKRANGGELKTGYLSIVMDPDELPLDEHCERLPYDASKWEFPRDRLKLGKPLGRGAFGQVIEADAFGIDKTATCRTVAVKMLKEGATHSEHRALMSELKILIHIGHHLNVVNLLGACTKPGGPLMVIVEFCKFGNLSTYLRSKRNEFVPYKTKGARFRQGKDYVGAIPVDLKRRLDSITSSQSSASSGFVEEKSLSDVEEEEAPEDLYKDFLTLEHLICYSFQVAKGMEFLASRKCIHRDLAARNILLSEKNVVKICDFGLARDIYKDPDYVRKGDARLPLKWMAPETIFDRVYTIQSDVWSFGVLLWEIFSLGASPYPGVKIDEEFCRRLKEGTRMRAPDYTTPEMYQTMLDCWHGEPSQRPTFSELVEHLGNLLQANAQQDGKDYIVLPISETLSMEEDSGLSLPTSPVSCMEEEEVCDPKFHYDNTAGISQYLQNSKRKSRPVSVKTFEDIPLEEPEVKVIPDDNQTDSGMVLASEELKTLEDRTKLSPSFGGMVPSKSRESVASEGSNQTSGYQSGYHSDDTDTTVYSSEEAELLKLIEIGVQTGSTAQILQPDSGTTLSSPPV
Sequence of Receptor tyrosine-protein kinase erbB-2 (P04626 whole entry): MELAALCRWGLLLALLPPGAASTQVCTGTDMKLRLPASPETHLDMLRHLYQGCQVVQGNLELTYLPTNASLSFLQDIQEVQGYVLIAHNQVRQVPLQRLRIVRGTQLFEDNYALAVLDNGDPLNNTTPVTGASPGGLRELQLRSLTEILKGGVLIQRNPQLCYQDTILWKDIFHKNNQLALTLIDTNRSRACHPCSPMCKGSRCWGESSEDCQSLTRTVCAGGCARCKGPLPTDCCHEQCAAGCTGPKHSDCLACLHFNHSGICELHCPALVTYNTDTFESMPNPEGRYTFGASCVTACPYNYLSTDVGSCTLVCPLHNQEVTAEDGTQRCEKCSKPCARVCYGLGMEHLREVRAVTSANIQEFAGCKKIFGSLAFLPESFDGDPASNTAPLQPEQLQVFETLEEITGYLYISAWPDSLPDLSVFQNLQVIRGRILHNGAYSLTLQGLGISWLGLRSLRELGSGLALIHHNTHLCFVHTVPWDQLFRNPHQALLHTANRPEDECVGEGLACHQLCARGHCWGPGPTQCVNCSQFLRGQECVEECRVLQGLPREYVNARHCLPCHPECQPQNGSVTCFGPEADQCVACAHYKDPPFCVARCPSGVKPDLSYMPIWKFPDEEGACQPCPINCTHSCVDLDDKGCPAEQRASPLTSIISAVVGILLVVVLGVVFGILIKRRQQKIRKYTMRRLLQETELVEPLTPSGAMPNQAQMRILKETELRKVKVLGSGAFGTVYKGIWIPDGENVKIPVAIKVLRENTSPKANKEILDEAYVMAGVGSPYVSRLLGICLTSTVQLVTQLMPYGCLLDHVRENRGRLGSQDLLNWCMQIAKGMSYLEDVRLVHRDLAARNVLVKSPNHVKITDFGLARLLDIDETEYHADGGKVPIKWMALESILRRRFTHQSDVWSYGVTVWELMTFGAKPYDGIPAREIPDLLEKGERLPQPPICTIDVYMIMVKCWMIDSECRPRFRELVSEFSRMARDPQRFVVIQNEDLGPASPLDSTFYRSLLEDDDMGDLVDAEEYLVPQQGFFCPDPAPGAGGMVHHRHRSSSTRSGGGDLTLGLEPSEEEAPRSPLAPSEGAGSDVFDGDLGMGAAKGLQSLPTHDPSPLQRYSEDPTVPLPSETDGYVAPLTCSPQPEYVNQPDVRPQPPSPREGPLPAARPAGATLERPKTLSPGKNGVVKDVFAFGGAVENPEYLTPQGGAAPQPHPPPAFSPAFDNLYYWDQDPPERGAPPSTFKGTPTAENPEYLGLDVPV

| SMILES | IC50 [2] | also measured |
| --- | --- | --- |
| Nc1ccc(C(=O)c2ccccc2)c(N)n1 | 1.1 µM |  |
| Nc1nc(Nc2ccc(NS(=O)(=O)c3ccccc3)cc2)ccc1C(=O)c1c(F)cccc1F | 0.74 µM |  |
| Nc1ccc(C(=O)c2ccccc2F)c(N)n1 | 8.2 µM |  |
| CCN(CC)S(=O)(=O)c1ccc(Nc2ccc(C(=O)c3ccco3)c(N)n2)cc1 | > 100 µM |  |
| CN(C)S(=O)(=O)c1ccc(Nc2ccc(C(=O)c3cccs3)c(N)n2)cc1 | 12.7 µM |  |
| Nc1nc(Nc2ccc(S(=O)(=O)N(Cc3ccccc3)Cc3ccccc3)cc2)ccc1C(=O)c1c(F)cccc1F | > 10 µM |  |
| Nc1ccc(C(=O)c2cccs2)c(N)n1 | > 100 µM |  |
| Nc1ccc(C(=O)c2ccco2)c(N)n1 | > 100 µM |  |
| CC(=O)Nc1ccccc1Nc1ccc(C(=O)c2c(F)cccc2F)c(N)n1 | > 100 µM |  |
| Nc1nc(Nc2ccccn2)ccc1C(=O)c1c(F)cccc1F | 12.3 µM |  |
| Nc1nc(Nc2ccccc2NS(=O)(=O)c2ccccc2)ccc1C(=O)c1c(F)cccc1F | > 100 µM |  |
| CCN(CC)S(=O)(=O)c1ccc(Nc2ccc(C(=O)c3ccccc3)c(N)n2)cc1 | > 100 µM |  |
| CN(C)S(=O)(=O)c1ccc(Nc2ccc(C(=O)c3ccccc3)c(N)n2)cc1 | 2.19 µM |  |
| Nc1nc(Nc2ccccc2[N+](=O)[O-])ccc1C(=O)c1c(F)cccc1F | > 10 µM |  |
| CCCCOc1cc(Nc2ccc(S(=O)(=O)N(C)C)cc2)nc(N)c1C(=O)c1c(F)cccc1F | 1 µM |  |
| CCCCOc1cc(N)nc(N)c1C(=O)c1c(F)cccc1F | 1.2 µM |  |
| CCCCOc1cc(Nc2ccc(S(N)(=O)=O)cc2)nc(N)c1C(=O)c1c(F)cccc1F | 0.26 µM | IC50 [1]: 0.084 µM; IC50 [3]: 6.7 µM; IC50 [4]: 2.9 µM; IC50 [9]: > 100 µM; IC50 [5]: 10.7 µM; IC50 [6]: > 100 µM; IC50 [7]: > 100 µM |
| CN(C)S(=O)(=O)c1ccc(Nc2ccc(C(=O)c3ccco3)c(N)n2)cc1 | 10.6 µM |  |
| CN(C)S(=O)(=O)c1ccc(Nc2ccc(C(=O)c3ccccc3F)c(N)n2)cc1 | 1.96 µM |  |
| Nc1ccc(C(=O)c2c(F)cccc2F)c(N)n1 | 2.6 µM |  |
| Nc1nc(Nc2ccccc2NC(=O)c2ccccc2)ccc1C(=O)c1c(F)cccc1F | > 100 µM |  |

Continued, in another order:

| IC50 [2] | SMILES | also measured |
| --- | --- | --- |
| 0.59 µM | CN(C)S(=O)(=O)c1ccc(Nc2ccc(C(=O)c3c(F)cccc3F)c(N)n2)cc1 | IC50 [1]: 0.5 µM; IC50 [3]: > 10 µM; IC50 [4]: > 10 µM; IC50 [5]: > 10 µM; IC50 [6]: > 100 µM; IC50 [7]: > 100 µM; IC50 [8]: > 100 µM |
| 0.36 µM | Nc1nc(Nc2ccc(S(N)(=O)=O)cc2)ccc1C(=O)c1c(F)cccc1F | IC50 [1]: 0.18 µM; IC50 [3]: 16.5 µM; IC50 [4]: 6.5 µM; IC50 [9]: > 100 µM; IC50 [5]: 17.2 µM; IC50 [6]: > 100 µM; IC50 [7]: > 100 µM |
| 1.37 µM | N#Cc1ccc(Nc2ccc(C(=O)c3c(F)cccc3F)c(N)n2)cc1 |  |
| 2.67 µM | Nc1nc(Nc2cccc([N+](=O)[O-])c2)ccc1C(=O)c1c(F)cccc1F |  |
| 0.75 µM | Nc1ccc(Nc2ccc(C(=O)c3c(F)cccc3F)c(N)n2)cc1 |  |
| 11.6 µM | Nc1ccccc1Nc1ccc(C(=O)c2c(F)cccc2F)c(N)n1 |  |
| 21.7 µM | Nc1nc(Nc2ccccc2)ccc1C(=O)c1c(F)cccc1F |  |
| 0.95 µM | NC(=O)c1ccc(Nc2ccc(C(=O)c3c(F)cccc3F)c(N)n2)cc1 |  |
| ~10 µM | Nc1nc(Nc2ccc(C(=O)O)cc2)ccc1C(=O)c1c(F)cccc1F |  |
| 1.14 µM | CNc1ccc(Nc2ccc(C(=O)c3c(F)cccc3F)c(N)n2)cc1 |  |
| 0.96 µM | Nc1nc(Nc2ccc([N+](=O)[O-])cc2)ccc1C(=O)c1c(F)cccc1F |  |
| 6.16 µM | Nc1nc(Nc2cccc(Cl)c2)ccc1C(=O)c1c(F)cccc1F |  |
